Values joined by “and” are separate entries in the source; they are usually repeats but may differ in a detail not shown here. Equal values may be shown once. Inconclusive results and toxic doses are left out. The calls were made as follows: active = survival T/C of 150% or more; inactive = T/C below 125% in these data.
Test system: BDF1 mice, B16 melanoma ip, median survival T/C
Experiment: NCI In Vivo Anticancer Drug Screen. Data for tumor model B16 Melanoma (intraperitoneal) in B6D2F1 (BDF1) mice
Details: endpoint: median survival time, higher = longer survival
How it was run: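 Survival or tumor size is measured after treatment of tumor-bearing mice and normalised to the vehicle-treated control group.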

[1] = dose: 12.5 mg/kg/injection, schedule: Q01DX009 (ip), vehicle: saline with Tween-80
[2] = dose: 25.0 mg/kg/injection, schedule: Q01DX009 (ip), vehicle: saline with Tween-80
[3] = dose: 50.0 mg/kg/injection, schedule: Q01DX009 (ip), vehicle: saline with Tween-80
[4] = dose: 100.0 mg/kg/injection, schedule: Q01DX009 (ip), vehicle: saline with Tween-80
[5] = dose: 200.0 mg/kg/injection, schedule: Q01DX009 (ip), vehicle: saline with Tween-80
[6] = dose: 100.0 mg/kg/injection, schedule: Q01DX009 (ip), vehicle: Klucel (hydroxypropylcellulose) (HPC)
[7] = dose: 200.0 mg/kg/injection, schedule: Q01DX009 (ip), vehicle: Klucel (hydroxypropylcellulose) (HPC)
[8] = dose: 100.0 mg/kg/injection, schedule: Q04DX003 (ip), vehicle: saline with Tween-80
[9] = dose: 25.0 mg/kg/injection, schedule: Q01DX009 (ip), vehicle: saline
[10] = dose: 50.0 mg/kg/injection, schedule: Q01DX009 (ip), vehicle: saline

Measured: T/C

C1CC[N-]CC1.C1CC[N-]CC1.C1CC[N-]CC1.[Cl][Rh]([Cl])[Cl]
inactive: dose: 2.0 mg/kg/injection, schedule: Q01DX009 (ip), vehicle: saline 93 % of control | dose: 4.0 mg/kg/injection, schedule: Q01DX009 (ip), vehicle: saline 99 % of control | dose: 6.25 mg/kg/injection, schedule: Q01DX009 (ip), vehicle: saline 109 % of control | dose: 6.25 mg/kg/injection, schedule: Q01DX009 (ip), vehicle: suspension in saline 103 % of control | dose: 8.0 mg/kg/injection, schedule: Q01DX009 (ip), vehicle: saline 103 % of control | [1] 98 % of control | dose: 12.5 mg/kg/injection, schedule: Q01DX009 (ip), vehicle: suspension in saline 103 % of control | dose: 16.0 mg/kg/injection, schedule: Q01DX009 (ip), vehicle: saline 104 % of control | [2] 87 % of control | dose: 25.0 mg/kg/injection, schedule: Q01DX009 (ip), vehicle: suspension in saline 110 % of control | dose: 32.0 mg/kg/injection, schedule: Q01DX009 (ip), vehicle: saline 121 % of control | [3] 93 % of control | dose: 50.0 mg/kg/injection, schedule: Q01DX009 (ip), vehicle: suspension in saline 110 % of control | [4] 94 % of control | dose: 100.0 mg/kg/injection, schedule: Q01DX009 (ip), vehicle: suspension in saline 115 % of control | [5] 100 % of control | dose: 200.0 mg/kg/injection, schedule: Q01DX009 (ip), vehicle: suspension in saline 112 % of control

CC12CCC(O)CC1CCC1C2CCC2(C)C(c3ccc(=O)oc3)CCC12O (stereo not drawn)
inactive: dose: 0.31 mg/kg/injection, schedule: Q01DX009 (ip), vehicle: saline with Tween-80 98 % of control | dose: 0.62 mg/kg/injection, schedule: Q01DX009 (ip), vehicle: saline with Tween-80 94 % of control | dose: 1.25 mg/kg/injection, schedule: Q01DX009 (ip), vehicle: saline with Tween-80 99 % of control | dose: 2.5 mg/kg/injection, schedule: Q01DX009 (ip), vehicle: saline with Tween-80 99 % of control

c1ccc(N2CCOCC2)cc1
inactive: [6] 96 % of control | [7] 96 % of control

CC(=O)Nc1ccc2c(ccc3ccccc32)c1
inactive: [2] 90 % of control | [3] 102 % of control | [4] 89 % of control

CC(=O)OCC(CCC(C)C)=C(C)C
inactive: dose: 25.0 mg/kg/injection, schedule: Q04DX003 (ip), vehicle: saline with Tween-80 104 % of control | dose: 50.0 mg/kg/injection, schedule: Q04DX003 (ip), vehicle: saline with Tween-80 104 % of control | [4] 97 % of control | [8] 86 % of control and 97 % of control | [5] 104 % of control

C=C(C)C(=O)O[C@H]1[C@H]2[C@H](OC(=O)[C@H]2C)[C@H](O)[C@@H](C)[C@@H]2C=CC(=O)[C@]21C
inactive: dose: 7.5 mg/kg/injection, schedule: Q01DX009 (ip), vehicle: saline 100 % of control | dose: 15.0 mg/kg/injection, schedule: Q01DX009 (ip), vehicle: saline with Tween-80 98 % of control | dose: 15.0 mg/kg/injection, schedule: Q01DX009 (ip), vehicle: saline 106 % of control | dose: 30.0 mg/kg/injection, schedule: Q01DX009 (ip), vehicle: saline with Tween-80 114 % of control | dose: 30.0 mg/kg/injection, schedule: Q01DX009 (ip), vehicle: saline 117 % of control | dose: 60.0 mg/kg/injection, schedule: Q01DX009 (ip), vehicle: saline with Tween-80 119 % of control

N#Cc1ccccc1C(C#N)c1ccc([N+](=O)[O-])cc1 (stereo not drawn)
inactive: [4] 100 % of control | [5] 90 % of control

CC(C)(C)OC(=O)NC(N)=NCCCC(NC(=O)OC(C)(C)C)C(=O)O (stereo not drawn)
inactive: [3] 101 % of control | [4] 88 % of control | [5] 87 % of control

ClC1CC[N-]CC1.ClC1CC[N-]CC1.[Cl][Pt+2]([Cl])([Cl])[Cl]
inactive: dose: 3.13 mg/kg/injection, schedule: Q01DX009 (ip), vehicle: saline with Tween-80 104 % of control | dose: 6.25 mg/kg/injection, schedule: Q01DX009 (ip), vehicle: saline with Tween-80 104 % of control | [1] 117 % of control

CC[N+]1(C2CCC3CCC2C3O)CCOCC1 (stereo not drawn)
inactive: [9] 105 % of control | [10] 105 % of control | dose: 100.0 mg/kg/injection, schedule: Q01DX009 (ip), vehicle: saline 105 % of control

CC[P+](CC)(CC)CCCCI
inactive: [10] 93 % of control

CCC1(O)CC(OC2CC(N(C)C)C(OC3CC(O)C(OC4CCC(=O)C(C)O4)C(C)O3)C(C)O2)c2c(cc3c(c2O)C(=O)c2c(O)ccc(O)c2C3=O)C1C(=O)OC (stereo not drawn)
inactive: dose: 0.23 mg/kg/injection, schedule: Q01DX009 (ip), vehicle: saline with Tween-80 98 % of control | dose: 3.6 mg/kg/injection, schedule: Q01DX001 (ip), vehicle: water 101 % of control and 109 % of control | dose: 6.0 mg/kg/injection, schedule: Q01DX001 (ip), vehicle: water 106 % of control and 112 % of control | dose: 10.0 mg/kg/injection, schedule: Q01DX001 (ip), vehicle: water 111 % of control

COc1c([N+](=O)[O-])cc(C(=O)O)cc1[N+](=O)[O-]
inactive: [6] 92 % of control | [7] 92 % of control

O=C(Nc1ccc(F)cc1)Nc1nccs1
inactive: dose: 25.0 mg/kg/injection, schedule: Q01DX009 (ip), vehicle: Klucel (hydroxypropylcellulose) (HPC) 99 % of control | dose: 50.0 mg/kg/injection, schedule: Q01DX009 (ip), vehicle: Klucel (hydroxypropylcellulose) (HPC) 104 % of control | [6] 101 % of control | [7] 104 % of control

O=CN(SSN(C=O)C1CCCCC1)C1CCCCC1
inactive: [1] 110 % of control | [2] 100 % of control | [3] 98 % of control | [4] 102 % of control | [5] 88 % of control

OC(C(c1ccccc1)c1ccccn1)(C(F)(F)F)C(F)(F)F (stereo not drawn)
inactive: dose: 66.0 mg/kg/injection, schedule: Q04DX003 (ip), vehicle: saline with Tween-80 112 % of control | [4] 110 % of control | [8] 117 % of control | dose: 150.0 mg/kg/injection, schedule: Q04DX003 (ip), vehicle: saline with Tween-80 115 % of control | [5] 112 % of control | dose: 400.0 mg/kg/injection, schedule: Q01DX009 (ip), vehicle: saline with Tween-80 105 % of control

Nc1cccs1
inactive: dose: 12.5 mg/kg/injection, schedule: Q01DX009 (ip), vehicle: saline 108 % of control | [9] 99 % of control | [10] 94 % of control

COc1cc2c(cc1OC)/C(=N/N=C1\CCCc3cc(OC)c(OC)cc31)CCC2
inactive: dose: 1.56 mg/kg/injection, schedule: Q01DX009 (ip), vehicle: water 104 % of control | dose: 3.13 mg/kg/injection, schedule: Q01DX009 (ip), vehicle: water 100 % of control | dose: 6.25 mg/kg/injection, schedule: Q01DX009 (ip), vehicle: water 100 % of control | dose: 12.5 mg/kg/injection, schedule: Q01DX009 (ip), vehicle: water 95 % of control

Nc1nc(=S)c2ncn(C3OC(COC(=O)c4ccc(Cl)cc4)C(OC(=O)c4ccc(Cl)cc4)C3OC(=O)c3ccc(Cl)cc3)c2[nH]1 (stereo not drawn)
inactive: dose: 18.75 mg/kg/injection, schedule: Q01DX009 (ip), vehicle: Klucel (hydroxypropylcellulose) (HPC) 116 % of control | dose: 37.5 mg/kg/injection, schedule: Q01DX009 (ip), vehicle: Klucel (hydroxypropylcellulose) (HPC) 120 % of control | dose: 75.0 mg/kg/injection, schedule: Q01DX009 (ip), vehicle: Klucel (hydroxypropylcellulose) (HPC) 116 % of control | dose: 150.0 mg/kg/injection, schedule: Q01DX009 (ip), vehicle: Klucel (hydroxypropylcellulose) (HPC) 109 % of control

CNC(=S)N/N=C/c1ccc([N+](=O)[O-])s1
inactive: [3] 90 % of control | [4] 92 % of control | [5] 92 % of control

O=C1Cc2cccc3c2C(C1)CN3C(=O)c1ccccc1 (stereo not drawn)
inactive: dose: 100.0 mg/kg/injection, schedule: Q04DX003 (ip), vehicle: Klucel (hydroxypropylcellulose) (HPC) 101 % of control | dose: 200.0 mg/kg/injection, schedule: Q04DX003 (ip), vehicle: Klucel (hydroxypropylcellulose) (HPC) 106 % of control | dose: 400.0 mg/kg/injection, schedule: Q04DX003 (ip), vehicle: Klucel (hydroxypropylcellulose) (HPC) 110 % of control

COc1ccc(OC)c(C2N(Cc3ccc(N(C)C)cc3)CCCN2Cc2ccc(N(C)C)cc2)c1
inactive: [2] 104 % of control | [3] 97 % of control | [4] 100 % of control

COc1ccccc1NC(=O)Oc1c(C(C)C)cccc1C(C)C
inactive: [6] 93 % of control | [7] 90 % of control | dose: 400.0 mg/kg/injection, schedule: Q01DX009 (ip), vehicle: Klucel (hydroxypropylcellulose) (HPC) 93 % of control

From PubChem BioAssay AID192 (DTP/NCI, 2004)
